Laboratory results as given in patent publication EP2650284A1, “Heterocyclic derivatives as metabotropic glutamate receptor modulators” (Merz Pharma GmbH & Co. KGaA, priority 2012, dated 2013).

What was measured:
mGluR5 receptors = target: T1, mGluR5 receptors (Rattus norvegicus, UniProt P31424); assay: Cytosolic calcium studies with astrocytes (FLIPR), functional assay of mGluR5 receptors; format: cell-based; settings: for r left shift: Table A1, left shift of quisqualate EC50 in the presence and absence of 10 µM modulator; for EC50: Table A1, positive modulators, fixed concentration of quisqualate (normally 10-30 nM), read-out: rEC50
T1 construct: Primary astrocyte cultures are prepared from cortices of newborn rats; endogenous in cells; host or cells: primary cortical astrocytes from Sprague-Dawley rat pups (2-4 d old)
T1 sequence (P31424 21-1203): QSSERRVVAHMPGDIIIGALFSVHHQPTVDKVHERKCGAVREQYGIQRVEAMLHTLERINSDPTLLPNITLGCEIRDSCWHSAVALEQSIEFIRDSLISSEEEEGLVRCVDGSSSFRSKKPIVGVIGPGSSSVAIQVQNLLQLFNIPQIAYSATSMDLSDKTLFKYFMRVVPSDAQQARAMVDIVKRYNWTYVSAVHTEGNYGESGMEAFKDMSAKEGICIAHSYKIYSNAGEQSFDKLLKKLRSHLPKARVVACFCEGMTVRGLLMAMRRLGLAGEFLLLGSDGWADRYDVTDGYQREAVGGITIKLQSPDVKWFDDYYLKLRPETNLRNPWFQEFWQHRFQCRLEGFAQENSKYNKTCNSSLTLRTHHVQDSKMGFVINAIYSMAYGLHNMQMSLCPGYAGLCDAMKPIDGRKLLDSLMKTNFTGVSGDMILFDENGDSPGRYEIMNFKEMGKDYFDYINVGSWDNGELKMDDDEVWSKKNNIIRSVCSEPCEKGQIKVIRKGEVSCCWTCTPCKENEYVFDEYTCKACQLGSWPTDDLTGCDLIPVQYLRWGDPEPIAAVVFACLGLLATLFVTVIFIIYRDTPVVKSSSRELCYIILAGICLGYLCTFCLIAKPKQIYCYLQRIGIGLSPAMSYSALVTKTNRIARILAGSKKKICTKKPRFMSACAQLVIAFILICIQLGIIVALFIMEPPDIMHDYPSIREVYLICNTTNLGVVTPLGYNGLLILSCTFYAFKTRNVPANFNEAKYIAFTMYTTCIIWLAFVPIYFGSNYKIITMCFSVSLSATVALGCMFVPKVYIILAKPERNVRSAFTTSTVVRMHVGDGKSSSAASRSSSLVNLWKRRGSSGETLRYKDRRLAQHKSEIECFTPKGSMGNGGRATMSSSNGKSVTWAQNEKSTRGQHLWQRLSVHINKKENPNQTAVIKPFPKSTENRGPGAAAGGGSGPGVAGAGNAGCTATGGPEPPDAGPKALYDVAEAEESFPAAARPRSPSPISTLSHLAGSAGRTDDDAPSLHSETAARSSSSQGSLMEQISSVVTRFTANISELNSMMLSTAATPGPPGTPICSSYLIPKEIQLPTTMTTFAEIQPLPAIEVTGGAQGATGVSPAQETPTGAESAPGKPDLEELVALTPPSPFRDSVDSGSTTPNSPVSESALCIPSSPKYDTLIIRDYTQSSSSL
Description: Primary astrocyte cultures are prepared from cortices of newborn rats as described by Booher and Sensenbrenner (1972, Neurobiology 2(3):97-105). Briefly, Sprague-Dawley rat pups (2 - 4 d old) are decapitated and neocortices are dissected, disintegrated with a nylon filter (pore size 80 µm) and carefully triturated. The cell suspension is plated on poly-D-lysine pre-coated flasks (Costar, Netherlands) and cultivated in Dulbecco's Modified Eagle's Medium (DMEM, Invitrogen, Germany) supplemented with 10% foetal calf serum (FCS, Sigma, Germany), 4 mM glutamine and 50 µg/ml gentamycin (both Biochrom, Germany) at 37°C in a humidified atmosphere of 5% CO2/ 95% air for 7 days with exchanging the medium at day 2 and 6.
After 7 days in vitro (DIV), cells are shaken overnight at 250 rpm to remove oligodendrocytes and microglia. The next day, astrocytes are rinsed twice with CMF-PBS (calcium- and magnesium-free phosphate buffered saline, Biochrom, Germany), trypsinized and subplated on poly-D-lysine pre-coated 96-well plates (Greiner, Germany) at a density of 40,000 cells/well. 24 h after establishing the secondary culture the astrocytes are rinsed with PBS^++ (phosphate buffered saline, Biochrom, Germany) and fed with astrocyte-defined medium (ADM) consisting of DMEM containing 1x G5-supplement (Invitrogen, Germany), 0.5 µg/ml heparan sulfate, and 1.5 µg/ml fibronectin (both Sigma, Germany) (Miller et al., (1993) Brain Res. 618(1):175-8). 3 days later the medium is exchanged and the cells incubated for another 2-3 days, so that at the time of experiments astrocytes are 14-15 DIV.
The increase of cytosolic calcium after stimulation with the mGluR5 agonist L-quisqualate is measured using a fluorometric imaging plate reader (FLIPR) and the Ca-Kit (both Molecular Devices). Prior to addition of agonist or antagonist the medium is aspirated and cells are loaded for 2 h at RT with 150 µl of loading buffer consisting of Ca-sensitive dye reconstituted in sodium chloride (123 mM), potassium chloride (5.4 mM), magnesium chloride (0.8 mM), calcium chloride (1.8 mM), D-glucose (15 mM), and HEPES (20 mM), pH 7.3. Subsequently, plates are transferred to FLIPR to detect calcium increase with the addition of L-quisqualate (100 nM) measured as relative fluorescence units (RFU). If antagonists are tested, these compounds are pre-incubated for 10 minutes at RT before addition of the respective agonist.
For positive modulators, concentration-response curves for quisqualate are performed in the presence and absence of 10 µM modulator to determine the extent of potentiation / agonist potency increase. Thereafter, concentration-response curves for the positive modulator are performed in the presence of a fixed concentration of quisqualate showing the biggest window for potentiation (normally 10-30 nM).
(§1) The fluorescence signal increase after addition of agonist reflects the increase of cytosolic calcium. Inconsistencies in the amount of cells per well are normalised by using the spatial uniformity correction of the FLIPR operating software Screenworks. The mean of replicated temporal data (n=3-5) is calculated and used for graphical representation. For the evaluation of the pharmacology, the calcium changes in response to different concentrations of agonist or antagonist are determined using a maximum minus minimum (MaxMin) calculation.
(§2) All responses (RFU-values) are determined as percentage of control (= maximum response). EC50 and IC50 are calculated according the logistic equation using XLFit (IDBS, UK) or Prism 4.0 (GraphPad Software, USA). The compounds of the present invention have a potency (EC50 or IC50) within a range of about 0.5 nM to about 100 µM. The left shifts for positive or slient allosteric modulators (PAMs or SAMs, respectively) are determined by comparison of EC50 values from agonist dose response curves run in the presence of 10 µM modulator or vehicle (Vanejevs et al., J. Med. Chem., 2008, 51, 634-647).

[1] = target: T2, human metabotropic glutamate receptor mGluR5 (Homo sapiens, UniProt P41594); assay: Cytosolic calcium studies with stably transfected cells (h5CHO), functional assay of mGluR5 receptors; format: cell-based; settings: for h left shift / EC50: Table A1; for h left shift: left shift of agonist EC50, dose response curves in the presence of 10 µM modulator or vehicle; for EC50: positive modulators, h5CHO cells preincubated with modulator, stimulated by an EC20 concentration of L-glutamate, read-out: hEC50
T2 construct: expressed in transfected cells; host or cells: CHO-K1 (h5CHO), IPTG-inducible
T2 sequence (P41594 21-1212): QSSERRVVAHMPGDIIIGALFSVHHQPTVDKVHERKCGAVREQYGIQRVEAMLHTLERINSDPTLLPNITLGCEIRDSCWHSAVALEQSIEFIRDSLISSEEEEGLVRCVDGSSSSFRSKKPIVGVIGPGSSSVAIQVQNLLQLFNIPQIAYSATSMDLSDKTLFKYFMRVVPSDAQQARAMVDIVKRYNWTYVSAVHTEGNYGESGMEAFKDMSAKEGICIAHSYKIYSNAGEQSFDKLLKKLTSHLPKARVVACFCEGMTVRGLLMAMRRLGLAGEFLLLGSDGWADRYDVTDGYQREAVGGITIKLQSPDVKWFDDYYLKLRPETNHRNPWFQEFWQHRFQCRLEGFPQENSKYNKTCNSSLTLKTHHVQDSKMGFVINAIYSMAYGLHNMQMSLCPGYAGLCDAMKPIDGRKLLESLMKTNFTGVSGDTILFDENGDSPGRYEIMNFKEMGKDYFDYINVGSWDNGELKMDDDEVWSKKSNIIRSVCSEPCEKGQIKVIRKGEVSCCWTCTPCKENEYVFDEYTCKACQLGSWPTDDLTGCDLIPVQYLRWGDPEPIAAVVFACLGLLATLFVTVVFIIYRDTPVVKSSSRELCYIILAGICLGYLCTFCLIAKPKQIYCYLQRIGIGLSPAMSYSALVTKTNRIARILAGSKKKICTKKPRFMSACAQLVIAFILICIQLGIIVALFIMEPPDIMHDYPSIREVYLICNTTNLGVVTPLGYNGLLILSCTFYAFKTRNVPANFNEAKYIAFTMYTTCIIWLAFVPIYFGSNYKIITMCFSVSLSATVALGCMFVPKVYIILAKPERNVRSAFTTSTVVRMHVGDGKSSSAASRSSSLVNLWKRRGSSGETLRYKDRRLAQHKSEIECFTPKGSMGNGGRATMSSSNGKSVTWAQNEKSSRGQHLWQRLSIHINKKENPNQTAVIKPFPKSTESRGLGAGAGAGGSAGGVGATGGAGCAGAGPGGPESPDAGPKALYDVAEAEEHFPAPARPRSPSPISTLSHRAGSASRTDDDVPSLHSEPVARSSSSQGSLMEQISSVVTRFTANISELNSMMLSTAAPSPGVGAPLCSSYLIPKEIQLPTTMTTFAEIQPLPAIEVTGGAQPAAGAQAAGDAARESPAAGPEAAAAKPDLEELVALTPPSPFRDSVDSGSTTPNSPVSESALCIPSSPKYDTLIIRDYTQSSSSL
Description: Chinese hamster ovary cells (CHO-K1 cells), stably transfected for inducible expression of a human metabotropic glutamate receptor mGluR5 to form a cell line called h5CHO, are seeded into black clear bottom 96 well plates at a density of 35.000 cells per well. The standard growth medium used (Dulbecco's modified Eagle Medium, DMEM plus L-proline) contains the appropriate inducer isopropyl-β-D-thiogalactopyranosid (IPTG) to achieve optimal receptor expression. One day after seeding the growth medium is exchanged for reconstituted Ca-Kit (Molecular Devices, USA) and incubated for one hour. Ca-Kit is reconstituted in an assay buffer containing 20 mM HEPES pH 7.4, glutamic-pyruvate transaminase, pyridoxal phosphate and sodium pyruvate in Hank's balanced salt solution (HBBS). Agonistic compounds to the receptor elicit increases in cytosolic calcium which can be measured as increases in fluorescence signals by use of a fluorescence imaging plate reader (Molecular Devices). To analyze their potency to negatively modulate the Ca-response test compounds, dissolved in a final DMSO concentration of 0.5%, are added on-line 5 minutes before the agonist to the receptor (L-quisqualic acid at a concentration giving ~80% of the maximal signal). EC50 values for positive allosteric modulators were determined by stimulating the cells which have been preincubated the modulators by an EC20 concentration of L-glutamate.
as §1, §2

SMILES | r left shift (mGluR5 receptors) | EC50 (mGluR5 receptors) [nM] | h left shift ([1]; h5CHO cells) | EC50 [1] [nM] | IC50 (mGluR5 receptors; Table A2, pre-incubated 10 minutes before L-quisqualate (100 nM), read-out: rIC50) [nM] | IC50 ([1]; Table A2, negative modulation, compounds added 5 minutes before L-quisqualic acid (~80% of the maximal signal), h5CHO cells, read-out: hIC50) [nM]
CN1CC2(CCCc3ncc(C#Cc4ccccc4)cc32)OC1=O (racemic) [Example 11, (rac)-3-Methyl-3'-(phenylethynyl)-7',8'-dihydro-6'H-spiro[oxazolidine-5,5'-quinolin]-2-one] | 2.9-fold | 58.6 | 1.8-fold | 53.7 |  | 
O=S(=O)(N1CCOCC1)N1CCc2ncc(C#Cc3ccccc3)cc2C1 [Example 55, 4-((3-(Phenylethynyl)-7,8-dihydro-1,6-naphthyridin-6(5H)-yl)sulfonyl)morpholine] | 3.8-fold | 325 | 2.7-fold | 440 |  | 
CCCN1CCO[C@@H]2c3cc(C#Cc4ccc(F)cc4)cnc3CC[C@@H]21 (racemic) [Example 20, (rac)-cis-9-((4-Fluorophenyl)ethynyl)-4-propyl-3,4,4a,5,6,10b-hexahydro-2H-[1,4]oxazino[2,3-f]quinoline] | 3.3-fold | 1350 | 1.8-fold | 394 |  | 
O=S(=O)(N1CCCC1)N1CCc2ncc(C#Cc3ccccc3)cc2C1 [Example 53, 3-(Phenylethynyl)-6-(pyrrolidin-1-ylsulfonyl)-5,6,7,8-tetrahydro-1,6-naphthyridine] | 2.8-fold | 152 | 1.6-fold |  |  | 
CN(C)C(=O)N1CCO[C@@H]2c3cc(C#Cc4ccccc4)cnc3CC[C@@H]21 (racemic) [Example 27, (rac)-cis-N,N-Dimethyl-9-(phenylethynyl)-4a,5,6,10b-tetrahydro-2H [1,4]oxazino[2,3-f]quinoline-4(3H)-carboxamide] | 3.3-fold | 427 | 2.4-fold | 884 |  | 
O=S(=O)(C1CC1)N1CCc2ncc(C#Cc3ccccc3)cc2C1 [Example 38, 6-(Cyclopropylsulfonyl)-3-(phenylethynyl)-5,6,7,8-tetrahydro-1,6-naphthyridine] | 2.5-fold | 481 | 1.7-fold |  |  | 
CCCN1CCO[C@@H]2c3cc(C#Cc4ccccc4)cnc3CC[C@@H]21 (single isomer, unassigned) [Example 16, cis-9-(Phenylethynyl)-4-propyl-3,4,4a,5,6,10b-hexahydro-2H-[1,4]oxazino[2,3-f]quinoline] | 6.0-fold | 453 | 3.8-fold | 47 |  | 
COC(=O)N1C[C@H]2Cc3cc(C#Cc4cccc(F)c4)cnc3[C@H]2C1 (racemic) [Example 73, (rac)-cis-Methyl 3-((3-fluorophenyl)ethynyl)-5a,6,8,8a-tetrahydropyrrolo[3',4':4,5]cyclopenta[1,2-b]pyridine-7(5H)-carboxylate] | 2.7-fold | 219 | 2.7-fold | 546 |  | 
COC1CC(C)(C)Cc2ncc(C#Cc3cccc(N)n3)cc21 (racemic) [Example 5, (rac)-6-((5-Methoxy-7,7-dimethyl-5,6,7,8-tetrahydroquinolin-3-yl)ethynyl)pyridin-2-amine] |  |  |  |  | 45.7 | 66.7
COC(=O)N1CC2Cc3cc(C#Cc4ccccc4)cnc3C2C1 (racemic) [Example 79, (rac)-Methyl 3-(phenylethynyl)-5a,6,8,8a-tetrahydropyrrolo[3',4':4,5]cyclopenta[1,2-b]pyridine-7(5H)-carboxylate] | 4.1-fold | 167 | 2.6-fold | 64.7 |  | 
COC(=O)N1C2CCC1c1cc(C#Cc3cccc(F)c3)cnc1C2 (racemic) [Example 59, (rac)-Methyl 3-((3-fluorophenyl)ethynyl)-6,7,8,9-tetrahydro-5H-5,8-epiminocyclohepta[b]pyridine-10-carboxylate] | 3.3-fold | 102 | 1.8-fold | 277 |  | 
CC(C)(C)OC(=O)N1CCc2ncc(C#Cc3ccccc3)cc2C1 [Example 42, tert-Butyl 3-(phenylethynyl)-7,8-dihydro-1,6-naphthyridine-6(5H)-carboxylate] | 1.9-fold | 131 | 3.1-fold | 281 |  | 

Results, then the compound that gave them:

r left shift (mGluR5 receptors) | EC50 (mGluR5 receptors) [nM] | h left shift ([1]; h5CHO cells) | EC50 [1] [nM] | IC50 (mGluR5 receptors; Table A2, pre-incubated 10 minutes before L-quisqualate (100 nM), read-out: rIC50) [nM] | IC50 ([1]; Table A2, negative modulation, compounds added 5 minutes before L-quisqualic acid (~80% of the maximal signal), h5CHO cells, read-out: hIC50) [nM] | SMILES
1.5-fold | 10.1 | 1.6-fold |  |  |  | O=C1OC2(CCCc3ncc(C#Cc4ccccc4)cc32)CN1C1CC1 (racemic) [Example 74, (rac)-3-Cyclopropyl-3'-(phenylethynyl)-7',8'-dihydro-6'H-spiro[oxazolidine-5,5'-quinolin]-2-one]
2.7-fold | 4040 | 2.4-fold | 917 |  |  | CC1(C(=O)N2CCc3ncc(C#Cc4ccccc4)cc3C2)COC1 [Example 36, (3-Methyloxetan-3-yl)(3-(phenylethynyl)-7,8-dihydro-1,6-naphthyridin-6(5H)-yl)methanone]
 | 38 | 2.4-fold | 381 |  |  | O=C(Oc1ccccc1)N1CCc2ncc(C#Cc3ccccc3)cc2C1 [Example 43, Phenyl 3-(phenylethynyl)-7,8-dihydro-1,6-naphthyridine-6(5H)-carboxylate]
2.2-fold |  | 2.4-fold | 19.2 |  |  | Cn1ncc2c1-c1cc(C#Cc3ccccc3)cnc1CC2 [Example 28, 1-Methyl-8-(phenylethynyl)-4,5-dihydro-1H-pyrazolo[3,4-f]quinoline]
5.2-fold | 175 | 3.2-fold | 88.6 |  |  | CCCN1CCO[C@@H]2c3cc(C#Cc4ccccc4)cnc3CC[C@@H]21 (racemic) [Example 15, (rac)-cis-9-(Phenylethynyl)-4-propyl-3,4,4a,5,6,10b-hexahydro-2H-[1,4]oxazino[2,3-f]quinoline]
2.6-fold | 613 | 2.6-fold | 247 |  |  | CCCN1CCO[C@@H]2c3cc(C#Cc4ccccc4F)cnc3CC[C@@H]21 (racemic) [Example 18, (rac)-cis-9-((2-Fluorophenyl)ethynyl)-4-propyl-3,4,4a,5,6,10b-hexahydro-2H-[1,4]oxazino[2,3-f]quinoline]
